From US20060135483A1, “Oxygen/nitrogen heterocycle inhibitors of tyrosine phosphatases” (priority 2004, published 2006) come the findings set out here.

The target of the first experiment is T1, PTP-1B (Homo sapiens, UniProt P18031).
T1 construct: PTP-1B (purified, 1 mg/mL) as a 1:250 dilution
T1 sequence (P18031 1-321 limits assumed): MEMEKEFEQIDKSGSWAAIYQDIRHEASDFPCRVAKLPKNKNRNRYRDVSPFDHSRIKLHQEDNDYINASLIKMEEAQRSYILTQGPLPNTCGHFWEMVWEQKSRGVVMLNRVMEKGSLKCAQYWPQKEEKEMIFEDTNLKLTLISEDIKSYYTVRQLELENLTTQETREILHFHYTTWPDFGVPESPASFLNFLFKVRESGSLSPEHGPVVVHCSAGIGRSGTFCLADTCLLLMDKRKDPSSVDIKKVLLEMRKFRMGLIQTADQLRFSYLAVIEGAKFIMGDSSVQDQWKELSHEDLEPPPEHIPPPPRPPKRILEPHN
Nature of the experiment: pNPP assay for tyrosine phosphatase inhibitory activity. Format: biochemical. Conditions: Table 1; pNPP substrate 10 mM, 30° C., 10 minutes, absorbance at 405 nm. The method, then: The compounds provided herein are evaluated for biological activity as inhibitors of PTP-1B using, for example, a pNPP assay. Such an assay can be used to screen compounds for tyrosine phosphatase inhibitory activity as shown in Example 39.
A 5× stock of pNPP (p-nitrophenol phosphate) substrate is prepared as 50 mM pNPP in assay buffer. Various tyrosine phosphatase solutions can be prepared as follows: • PTP-1B (purified, 1 mg/mL) as a 1:250 dilution (to a final concentration of 4:g/mL); • TC-PTP (NEB, 1000 units in 100:L) as a 1:50 dilution (to a final concentration of 2 U/10:L (4:g/mL)); • CD45 (Calbiochem, 20:g, 400 units in 100: L) as a 1 :50 dilution (to a final concentration of 0.8 U/10:L (4:g/mL)); • LAR (NEB, 1000 units in 200:L) as a 1:75 dilution (to a final concentration of 0.7 U/10:L (4:g/mL)); and • PTP-β (UBI, #14-350, 10,000 units, 40:g/571:L) as a 1:17.5 dilution (to a final concentration of 10 U/10:L (4:g/mL));
The compound to be tested is prepared as 1:16.7 and 1:50 dilutions from stock in a total volume of 1 00:M DMSO to give final concentrations of 626 and 200:M. The reaction mixtures are prepared in a 96-well microtiter plate (on ice) as 55:L assay buffer, 5:L of the diluted compound (to a final concentration of 31.3 and 10:M), 20:L of the pNPP substrate solution (to a final concentration of 10 mM) and 20:L PTPase in assay buffer. The reactants are mixed well, the plate placed in a water bath at 30° C. and incubated for 10 minutes. The reaction is then terminated by adding 1 OO:L of 2M K2CO3 per well, and the absorbance is measured at 405 nm by conventional means.
Unless otherwise indicated, this assay was used to determine activity for the selected compounds whose activity is recorded in Table 1 and Table 2.
Broadly, the IC50 is the midpoint of a concentration-inhibition curve. A low value points to higher potency. `O=C(O)c1cccc(Oc2cccc(-c3nnc(N(Cc4ccc(C(F)(F)P(=O)(O)O)c(Br)c4)c4ccc(Cl)c(Cl)c4)o3)c2)c1` [Example 25, 3-(3-{5-[[3-Bromo-4-(difluoro-phosphono-methyl)-benzyl]-(3,4-dichloro-phenyl)-amino]-[1,3,4]oxadiazol-2-yl}-phenoxy)-benzoic acid]: the IC50 lay in the range of 100 to 500 nM.

Molecule `COC(=O)c1ccc(-c2cnc(N(Cc3ccc(C(F)(F)P(=O)(O)O)c(Br)c3)c3ccc(Cl)c(Cl)c3)o2)cc1` [Example 2, 4-{2-[[3-Bromo-4-(difluoro-phosphono-methyl)-benzyl]-(3,4-dichloro-phenyl)-amino]-oxazol-5-yl}-benzoic acid methyl ester] had an IC50 of 500 to 1000 nM.

With `COC(=O)c1cccc(Oc2cccc(-c3nnc(N(Cc4ccc(C(F)(F)P(=O)(O)O)cc4)c4ccc(Cl)c(Cl)c4)o3)c2)c1` [Example 22, 3-[3-(5-{(3,4-Dichloro-phenyl)-[4-(difluoro-phosphono-methyl)-benzyl]-amino}-[1,3,4]oxadiazol-2-yl)-phenoxy]-benzoic acid methyl ester], the 50% inhibitory concentration (IC50) is 1000 to 10000 nM.

`O=C(O)c1ccccc1Oc1cccc(-c2cnc(N(Cc3ccc(C(F)(F)P(=O)(O)O)c(Br)c3)c3ccc(Cl)c(Cl)c3)o2)c1` [Example 18, 2-(3-{2-[[3-Bromo-4-(difluoro-phosphono-methyl)-benzyl]-(3,4-dichloro-phenyl)-amino]-oxazol-5-yl}-phenoxy)-benzoic acid] returned a half-inhibitory concentration (IC50) of 100 to 500 nM.

Turning to `O=C(O)c1ccc(-c2cnc(N(Cc3ccc(C(F)(F)P(=O)(O)O)c(Br)c3)c3ccccc3)o2)cc1` [Example 5, 4-(2-{[3-Bromo-4-(difluoro-phosphono-methyl)-benzyl]-phenyl-amino}-oxazol-5-yl)-benzoic acid], the IC50 was in the range of 100 to 500 nM.

As for `CS(=O)(=O)c1ccc(-c2cnc(N(Cc3ccc(/C=C/C(=O)O)c(Br)c3)c3ccc(Cl)c(Cl)c3)o2)cc1` [3-[2-Bromo-4-({(3,4-dichloro-phenyl)-(5-(4-methanesulfonyl-phenyl)-oxazol-2-yl]-amino}-methyl)-phenyl]-acrylic acid], the half-maximal inhibitory concentration (IC50) lay within 10000 to 100000 nM.

Take `COC(=O)c1cccc(Oc2cccc(-c3nnc(N(Cc4ccc(C(F)(F)P(=O)(O)O)c(Br)c4)c4ccc(Cl)c(Cl)c4)o3)c2)c1` [Example 24, 3-(3-{5-[[3-Bromo-4-(difluoro-phosphono-methyl)-benzyl]-(3,4-dichloro-phenyl)-amino]-[1,3,4]oxadiazol-2-yl}-phenoxy)-benzoic acid methyl ester]: the IC50 fell in the range of 500 to 1000 nM.

In the case of `COC(=O)c1ccc(-c2cnc(N(Cc3ccc(C(F)(F)P(=O)(O)O)c(Br)c3)c3ccccc3)o2)cc1` [Example 4, 4-(2-{[3-Bromo-4-(difluoro-phosphono-methyl)-benzyl]-phenyl-amino}-oxazol-5-yl)-benzoic acid methyl ester], the IC50 was 1000 to 10000 nM.

The molecule `CS(=O)(=O)c1ccc(-c2cnc(N(Cc3ccc(C(F)(F)P(=O)(O)O)c(Br)c3)c3ccc(Cl)c(Cl)c3)o2)cc1` [Example 6, {[2-Bromo-4-({(3,4-dichloro-phenyl)-[5-(4-methanesulfonyl-phenyl)-oxazol-2-yl]-amino}-methyl)-phenyl]-difluoro-methyl}-phosphonic acid] displayed an IC50 of less than 100 nM.

Turning to `O=C(O)c1ccccc1-c1ccc(-c2cnc(N(Cc3ccc(C(F)(F)P(=O)(O)O)c(Br)c3)c3ccc(Cl)c(Cl)c3)o2)cc1` [Example 17, 4′-{2-[[3-Bromo-4-(difluoro-phosphono-methyl)-benzyl]-(3,4-dichloro-phenyl)-amino]-oxazol-5-yl}-biphenyl-2-carboxylic acid], the half-maximal inhibitory concentration (IC50) was 100 to 500 nM.

With `COP(=O)(O)C(F)(F)c1ccc(CN(c2ccc(Cl)c(Cl)c2)c2ncc(-c3ccc(S(C)(=O)=O)cc3)o2)cc1Br` [{[2-Bromo-4-({(3,4-dichloro-phenyl)-[5-(4-methanesulfonyl-phenyl)-oxazol-2-yl]-amino}-methyl)-phenyl]-difluoro-methyl]-phosphonic acid monomethyl ester], the concentration for half-maximal inhibition (IC50) is 10000 to 100000 nM.

Regarding `O=C(O)c1ccccc1-c1cccc(-c2cnc(N(Cc3ccc(C(F)(F)P(=O)(O)O)c(Br)c3)c3ccc(Cl)c(Cl)c3)o2)c1` [Example 20, 3′-{2-[[3-Bromo-4-(difluoro-phosphono-methyl)-benzyl]-(3,4-dichloro-phenyl)-amino]-oxazol-5-yl}-biphenyl-2-carboxylic acid], the IC50 was in the range of 100 to 500 nM.

Molecule `O=C(O)c1cccc(Oc2cccc(-c3nnc(N(Cc4ccc(C(F)(F)P(=O)(O)O)cc4)c4ccc(Cl)c(Cl)c4)o3)c2)c1` [Example 23, 3-[3-(5-{(3,4-Dichloro-phenyl)-[4-(difluoro-phosphono-methyl)-benzyl]-amino}-[1,3,4]oxadiazol-2-yl)-phenoxy]-benzoic acid] returned an IC50 of 1000 to 10000 nM.

The molecule `CCOP(=O)(OCC)C(F)(F)c1ccc(CN(c2ccc(Cl)c(Cl)c2)c2ncc(-c3ccc(Oc4ccc(C(=O)OC)cc4)cc3)o2)cc1Br` [Example 7, 4-(4-{2-[{3-Bromo-4-[(diethoxy-phosphoryl)-difluoro-methyl]-benzyl}-(3,4-dichloro-phenyl)-amino]-oxazol-5-yl}-phenoxy)-benzoic acid methyl ester] registered a 50% inhibitory concentration (IC50) of 10000 to 100000 nM.

The same experiment, now with this note: Table 2; pNPP substrate 10 mM, 30° C., 10 minutes, absorbance at 405 nm.
For `COCCCN(Cc1ccc(C(F)(F)P(=O)(O)O)c(Br)c1)c1ncc(-c2ccc(S(C)(=O)=O)cc2)o1` [[(2-Bromo-4-{[[5-(4-methanesulfonyl-phenyl)-oxazol-2-yl]-(3-methoxy-propyl)-amino]-methyl}-phenyl)-difluoro-methyl]-phosphonic acid], the half-maximal inhibitory concentration (IC50) lay in the range of 100 to 500 nM.

`NC(=O)c1ccc(-c2cnc(N(Cc3ccc(C(F)(F)P(=O)(O)O)c(Br)c3)c3ccc(F)cc3)o2)cc1` [Example 37, [(2-Bromo-4-{[[5-(4-carbamoyl-phenyl)-oxazol-2-yl]-(4-fluoro-phenyl)-amino]-methyl}-phenyl)-difluoro-methyl]-phosphonic acid] registered a half-maximal inhibitory concentration (IC50) of 100 to 500 nM.

As to `CS(=O)(=O)c1ccc(-c2cnc(N(Cc3ccc(C(F)(F)P(=O)(O)O)c(Cl)c3)c3ccccc3)o2)cc1` [{[2-Chloro-4-({(5-(4-methanesulfonyl-phenyl)-oxazol-2-yl]-phenyl-amino}-methyl)-phenyl]-difluoro-methyl}-phosphonic acid], the IC50 lay in the range of 100 to 500 nM.

In turn, `O=C(O)c1ccccc1-c1ccc(-c2cnc(N(Cc3ccc(C(F)(F)P(=O)(O)O)c(Br)c3)c3ccc(Cl)cc3)o2)cc1` [Example 29, 4′-{2-[[3-Bromo-4-(difluoro-phosphono-methyl)-benzyl]-(4-chlorophenyl)-amino]-oxazol-5-yl}-biphenyl-2-carboxylic acid] registered an IC50 of 100 to 500 nM.

`CCOC(=O)C(C)NP(=O)(O)C(F)(F)c1ccc(CN(c2ccc(Cl)c(Cl)c2)c2ncc(-c3ccc(S(C)(=O)=O)cc3)o2)cc1Br` [Example 34, {[2-Bromo-4-({(3,4-dichloro-phenyl)-[5-(4-methanesulfonyl-phenyl)-oxazol-2-yl]-amino}-methyl)-phenyl]-difluoro-methyl}-phosphonic acid mono-(L-alanylethyl ester) amidate] displayed a half-inhibitory concentration (IC50) of 100 to 500 nM.

In the case of `CS(=O)(=O)c1ccc(-c2cnc(N(Cc3ccc(C(F)(F)P(=O)(O)O)c(Cl)c3)c3ccc(F)cc3)o2)cc1` [{[2-Chloro-4-({(4-fluoro-phenyl)-[5-(4-methanesulfonyl-phenyl)-oxazol-2-yl]-amino}-methyl)-phenyl]-difluoro-methyl}-phosphonic acid], the half-inhibitory concentration (IC50) was 100 to 500 nM.
